We go through 4 compounds from patent publication US20210177879A1, “VITAMIN D RECEPTOR AGONIST” (Guanghzou University of Chinese Medicine, priority 2018, published 2021).

Assay [1] has as its system AOM/DSS colon cancer model. Briefly: AOM/DSS colon cancer model, Experiment 2 (colon length, thickness, tumors). The class given is in vivo, Balb/c mice. The settings on record: 2 mg/kg once a day. As for the experimental part:
(§1) Experimental method: 70 Balb/c mice of 6-8 weeks were purchased from the Experimental Animal Center in Guangzhou University of Chinese Medicine, weighed about 18-22 g, and subjected to adaptive feeding for 10 days. Modeling was divided into three stages. In the first stage, except for the normal group of animals being given saline injection, each of the other animals were intraperitoneally injected with a carcinogen AOM (10 mg/kg), and given free access to 2% DSS water from the next day for 7 days, and then given access to replaced regular drinking water for 14 days. In the second stage, the animals were given free access to 2% DSS water for 10 days, and then given access to replaced regular drinking water for 14 days. In the third stage, the animals were given free access to 2% DSS water for 10 days, and then given access to replaced regular drinking water for 11 days. The normal group was given access to regular drinking water throughout the experiment. The diet, water drinking and body weights of the animals were recorded daily and DAI scores were made, and the animals were killed and harvested at the 10th week. In this experiment, the animals were divided into groups and administrated on the first day of a modeling period of the second stage, where a total of 7 groups were set, each group including 10 animals. The first group was a blank control group (control) that was given access to drinking water by gavage; the second group was a model group (model), in which a total of 10 animals were given access to drinking water by gavage; the third group was a vitamin D3 positive administration control group (VD3, 0.2 mg/kg); and the fourth to seventh groups were given monotropein, desacetyl asperulosidic acid, asperuloside, and asperulosidic acid (groups labeled as: Mo, As, Aa, Da), respectively at a given dose of 2 mg/kg. Dosing was conducted once a day until the end of the experiment. At the end of the experiment, the animals were anesthetized and harvested, and the colon tissue was taken, measured with a ruler for the length, and measured with a vernier caliper for the thickness. The effects of monotropein, desacetyl asperulosidic acid, asperuloside and asperulosidic acid on expression of the vitamin D receptor were detected.

For another assay, the system named is vitamin D receptor. Briefly: Expression of vitamin D receptor in colon tissues, Experiment 2 (Western blot, immunohistochemistry). The class given is in vivo, Balb/c mice. The settings on record: compared with the blank group; VD3 0.2 mg/kg, four compounds 2 mg/kg. As for the experimental part: as §1
Assay [2] deals with SW1990 breast cancer cells. Briefly: In vitro proliferation inhibition of SW1990 breast cancer cells. The class given is cell-based. The settings on record: concentration of 1 uM; compared with blank control group. How it is done:
(§2) The SW1990 cells were thawed, and cultured in a changed medium after 24 hours. Medium preparation method: 6% serum, 1% of a bispecific antibody+a 1640 basal medium. After grown to confluent, the cells were digested and subcultured to expand the number of cells. When reached the required amount, the cells were digested by trypsin, centrifuged, and resuspended in PBS to prepare a cell suspension of 1×10^8 cells/ml. A part of the cell suspension was added with the monotropein, desacetyl asperulosidic acid, asperuloside, and asperulosidic acid respectively, and the inhibition rate (%) of tumor cell proliferation by each of these different compounds was examined.

The test system of assay [3] is SMB-231 pancreatic cancer cells. Briefly: In vitro proliferation inhibition of SMB-231 pancreatic cancer cells. It counts as cell-based. The settings on record: concentration of 1 uM; compared with blank control group. How it is done:
as §2, with “SMB-231 pancreatic cancer” for “SW1990”

The next assay deals with HT29 transplanted tumor. Briefly: Transplanted tumor of HT29 colon cancer cells in nude mice. The class given is in vivo. The conditions noted are these: 2 mg/kg in combination with 5-fluorouracil at half dose (20 mg/kg), once a day; effect comparable to 5-fluorouracil alone 40 mg/kg. As for the experimental part: as §2, with “HT29” for “SW1990”
(§3) Male adult nude mice, which had the body weights of 20-24 g, were purchased from Guangdong Medical Laboratory Animal Center. After 7 days of adaptive feeding of the animals, except for the blank group, the remaining animals were injected with 0.2 ml of a cell suspension in PBS at ventrodorsal and scapula sites of them, the response conditions of the animals were observed, and the body weights of the animals were determined once a week. After 2 weeks of observation, the animals were grouped into the following groups according to tumor size: a blank group; a model group; a 5-fluorouracil control group (5-Full, 40 mg/kg); monotropein+5-fluorouracil (2 mg/kg monotropein+20 mg/kg 5-fluorouracil), desacetyl asperulosidic acid+5-fluorouracil (2 mg/kg desacetyl asperulosidic acid+20 mg/kg 5-fluorouracil), asperuloside+5-fluorouracil (2 mg/kg asperuloside+20 mg/kg 5-fluorouracil), asperulosidic acid+5-fluorouracil (2 mg/kg asperulosidic acid+20 mg/kg 5-fluorouracil), these groups being labeled as: Mo, As, Aa, Da. Each group included 8 animals; and administration was conducted once a day.
(§4) The status, death conditions, and eating and drinking conditions of the animals were observed daily. The body weights of the animals were determined once a week and the tumor size of the animals was determined every 4 days. The tumor volume of the animals was determined by using a vernier caliper. After 1 month of administration, the animals were sacrificed after blood was sampled from the orbit thereof, and the tumor was separated and weighed.

For the next assay, the system named is HT29 colon cancer cells. Briefly: In vitro proliferation inhibition of HT29 colon cancer cells. The conditions noted are these: concentration of 1 uM; compared with blank control group. The class given is cell-based. How it is done: as §2, with “HT29” for “SW1990”
Assay [4] relates to transplanted tumor of MB-231 pancreatic cancer cells. Briefly: Transplanted tumor of MB-231 pancreatic cancer cells in nude mice. The class given is in vivo. The settings on record: 2 mg/kg in combination with 5-fluorouracil at half dose (20 mg/kg), once a day; effect comparable to 5-fluorouracil alone 40 mg/kg. As for the experimental part:
as §2, with “SMB-231 pancreatic cancer” for “SW1990”
as §3, with “of a SMB-231 pancreatic cancer cell suspension” for “of a cell suspension”
as §4

Assay [5] deals with transplanted tumor of SW1990 breast cancer cells. In words: Transplanted tumor of SW1990 breast cancer cells in nude mice. The settings on record: 2 mg/kg in combination with 5-fluorouracil at half dose (20 mg/kg), once a day; effect comparable to 5-fluorouracil alone 40 mg/kg. The class given is in vivo. As for the experimental part:
as §2
as §3, with “of a SW1990 cell suspension” for “of a cell suspension”
as §4

Consider `O=C(O)C1=CO[C@@H](O[C@@H]2O[C@H](CO)[C@@H](O)[C@H](O)[C@H]2O)[C@@H]2C(CO)=C[C@H](O)[C@H]12` [desacetyl asperulosidic acid], for which the “incidence and development of colorectal cancers” value (from here on “incidence and development”) in assay [1] was “inhibiting the incidence and development of colorectal cancers”. Besides, the “expression of the vitamin D receptor in the colon tissues (Western blot and immunohistochemistry)” value (from here on “expression of the vitamin D receptor”) in the assay with vitamin D receptor is “promote expression enhancement”. Besides, the “proliferation of SW1990 cells in vitro” value in assay [2] is recorded as “significantly inhibit the proliferation”. In assay [3], the “proliferation of SMB-231 pancreatic cancer cells in vitro” value was “significantly inhibit the proliferation”. The “tumor proliferation in HT29 tumor-bearing mice” value with HT29 transplanted tumor is “significantly inhibit tumor proliferation”. In addition, in the assay with HT29 colon cancer cells, the “proliferation of HT29 colorectal cancer cells in vitro” value was “significantly inhibit the proliferation”. For the same compound, the “tumor proliferation in SMB-231 tumor-bearing mice” value in assay [4] is listed as “significantly inhibit tumor proliferation”. Besides, the “tumor proliferation in SW1990 tumor-bearing mice” value in assay [5] is reported as “significantly inhibit tumor proliferation”.
With `CC(=O)OCC1=C[C@@H]2OC(=O)C3=CO[C@@H](O[C@@H]4O[C@H](CO)[C@@H](O)[C@H](O)[C@H]4O)[C@H]1[C@@H]32` [asperuloside], the “incidence and development” value in assay [1] is “inhibiting the incidence and development of colorectal cancers”. Besides, the “expression of the vitamin D receptor” value in the assay with vitamin D receptor was “promote expression enhancement”. The “proliferation of SW1990 cells in vitro” value in assay [2] is “significantly inhibit the proliferation”. Besides, the “proliferation of SMB-231 pancreatic cancer cells in vitro” value in assay [3] is listed as “significantly inhibit the proliferation”. In addition, the “tumor proliferation in HT29 tumor-bearing mice” value in the assay on HT29 transplanted tumor was “significantly inhibit tumor proliferation”. The “proliferation of HT29 colorectal cancer cells in vitro” value with HT29 colon cancer cells is “significantly inhibit the proliferation”. The “tumor proliferation in SMB-231 tumor-bearing mice” value in assay [4] is “significantly inhibit tumor proliferation”. In assay [5], the “tumor proliferation in SW1990 tumor-bearing mice” value is recorded as “significantly inhibit tumor proliferation”.
For `C=C1CC[C@H](O)C/C1=C/C=C1\CCC[C@]2(C)[C@@H]([C@H](C)CCCC(C)C)CC[C@@H]12` [vitamin D3, reference compound], the “expression of the vitamin D receptor” value in the assay on vitamin D receptor was “promote expression enhancement”.
On to `CC(=O)OCC1=C[C@H](O)[C@@H]2C(C(=O)O)=CO[C@@H](O[C@@H]3O[C@H](CO)[C@@H](O)[C@H](O)[C@H]3O)[C@H]12` [asperulosidic acid], for which, in assay [1], the “incidence and development” value was “inhibiting the incidence and development of colorectal cancers”. Besides, the “expression of the vitamin D receptor” value in the assay on vitamin D receptor is “promote expression enhancement”. Further, the “proliferation of SW1990 cells in vitro” value in assay [2] is given as “significantly inhibit the proliferation”. Further, in assay [3], the “proliferation of SMB-231 pancreatic cancer cells in vitro” value is on record as “significantly inhibit the proliferation”. Also, in the assay with HT29 transplanted tumor, the “tumor proliferation in HT29 tumor-bearing mice” value is reported as “significantly inhibit tumor proliferation”. Moreover, the “proliferation of HT29 colorectal cancer cells in vitro” value in the assay with HT29 colon cancer cells is reported as “significantly inhibit the proliferation”. In addition, in assay [4], the “tumor proliferation in SMB-231 tumor-bearing mice” value is listed as “significantly inhibit tumor proliferation”. In addition, the “tumor proliferation in SW1990 tumor-bearing mice” value in assay [5] is listed as “significantly inhibit tumor proliferation”.
